Laboratory results as given in patent publication US11254958B1, “Metabolic engineering of E coli with thio-phosphate” (priority 2018, dated 2022).

Tests used:
E coli K12 bacteria [1] = assay: Agilent analyzer profile of total RNA from control and thiophosphate treated cultures; format: cell-based
Method: (§1) E coli K12 bacteria were grown in high citrate minimal media with 5.4 g/L of thiophosphate or 2.4 g/L of Na2HPO4 for up to 12 hrs. The use of high citrate media was chosen to help lower the total amount of thiophosphate needed for growth when compared to regular M9 media (1). The media is prepared as follows: thiophosphate, 5.4 g/L; KCL 1.5 g/L; (NH4)2SO4, 2 g/L; sodium citrate 2H2O, 10 g/L. Adjust the pH to 7.5 and sterile filter the solution. Then add the following: MgSO4-7H2O, 0.2 g/L (sterilized separately as a conc. solution); glucose, 2 g/L sterilized separately by filtration). Glucose can also be sterilized by autoclaving separately. CaCl2 (11 mg/L) is also be added as needed.
Total RNA was isolated using Bioline's ISOLATE II RNA mini kit. […] The rRNA ratio (23s/16s) was at least 1.6. Note small RNAs like SS RNA were not retained under the conditions used. For rRNA depleted preparations, Ribominus (Invitrogen) was then used to deplete 23S and 16S rRNA. The ribosomal depleted RNA was then concentrated with the kit's concentration module prior to gel analysis.
To further examine this idea, an Agilent analyzer was used to analyze the profiles of total RNA from control cultures and thiophosphate treated cultures (FIG. 1). It was evident that in E. coli, there was an increase in the non-ribosomal fraction, particularly between the […] and 23S ribosomal RNAs, which was even more evident in ribosomal RNA depleted samples (FIG. 1). Quantitative analysis indicated the fraction of 16S and 23S rRNA in the profile of total RNA was depleted in TP cultures relative to controls. […] This corresponds to a reduction of 8.8%. To estimate the fold increase in mRNA that could account for such a change, one needs to know the % of total RNA that is mRNA.

E coli K12 bacteria [2] = assay: Microarray analysis (Affymetrix E. coli Genome 2.0); format: cell-based
Method: as §1
Both Microarray and RNA seq analysis was performed. Total RNA was used for both studies. For microarray studies, raw Affymetrix CEL files (E. coli Genome 2.0) were normalized to produce probeset-level expression values for all probesets with Expression Console (version 1.4.1.46), using the Robust Multiarray Average (RMA) and Detection Above BackGround (DABG) (Irizarry R. A et al. 2003, Biostatistics 4(2): 249-64. doi:10.1093/biostatistics/4.2.249). The analysis was limited to 10,112 E. coli probesets interrogated by the array. Fold changes were computed using the R environment for statistical computing (version 2.15.1) by Boston University Microarray and Sequencing (CTSA grant #1UL1TR001430).

[3] = system: Bacillus megaterium strain ATCC 15117; assay: AICA production/secretion in fermentation with thio-phosphate; format: cell-based
Method: Bacillus megaterium was grown using a modified minimal media. In particular, the media contained: glucose, 60 g/L; KCL 1 g/L; MgSO4 0.4 g/L; peptone, 2 g/L; adenine, 0.25 g/L; NH4CI 8 g/L, urea, 3 g/L, calcium chloride, 0.5 g/L; as well as ferrous sulfate and manganese sulfate at 0.005 g/L. Thio-phosphate was added at levels between 2-6 g/L. For controls NaH2PO4 was add at 1 g/L.
Bacillus megaterium strain ATCC 15117 (U.S. Pat. No. 3,238,110 & 3,748,232) was used to examine the increased production of AICA using thio-phosphate. Cells were cultured at 26-30° C. for 4 days with 4 g/L of thio-phosphate or normal phosphate (1 g/L). […] The cells were pelleted, and the supernatant was acidified to pH 2 to help remove unwanted amino acids. The samples were then diluted with one volume of water and bound to activated charcoal with shaking for 2 hrs. (2 grams/20 ml) at room temp. The charcoal was collected on a filter with filtration and washed with 0.01 N HCl. AICA was then eluted with a solution of ethanol/ammonium hydroxide/water at a 1:1:2 ratio using a volume equivalent to the original supernatant. The samples were then separated and analyzed on Whatman chromatography paper using a solvent mixture of 50% butanol, 15% ethanol, and 35% water. The results indicated a ˜2× fold increase AICA per volume of cells.
Histidine and tryptophan were added to fermentation reactions to enhance AICA yield by blocking the endogenous synthesis of these amino acids. […] Fermentation reactions were typically initiated with 1.5 ml of overnight growth in nutrient broth which was then diluted into 50 ml of the reaction media. […] Despite the high activity, the growth of these cells was inhibited, almost in parallel with the amount of AICA secreted.

E coli = conditions: cited from earlier work
[4] = microarray (value outside parentheses)
[5] = 4 g/L thio-phosphate vs normal phosphate
[6] = twice as many starter cells, 50 mg each of his and trp

Compound: OP(O)(O)=S [thio-phosphate]
- midpoint of the non-ribosomal RNA peak (E coli K12 bacteria [1]): ~2,000 NT
- reduction of 16S and 23S rRNA fraction relative to controls (E coli K12 bacteria [1]): 8.8%
- fold increase in mRNA or non-ribosomal RNA relative to ribosomal RNA (E coli K12 bacteria [1]; assuming mRNA is normally 2% of the total): 5.5 × fold
- 16S and 23S rRNA as fraction of total RNA (E coli K12 bacteria [1]; average of two replicates): 42.5%
- average fold change of 19 genes with unstable mRNAs (E coli K12 bacteria [2]; half-lives less than or equal to 1.4 minutes): 1.0+/−2.8
- Dxs transcript fold enhancement (E coli K12 bacteria [2]; microarray): 2.5 × fold
- FabB transcript elevation (E coli K12 bacteria [2]; microarray): 3 ×
- TesA transcript elevation (E coli K12 bacteria [2]; microarray): 4 ×
- Udp transcript fold reduction (E coli K12 bacteria [2]; microarray): 3.2 × fold
- Upp transcript increase (E coli K12 bacteria [2]; microarray): 2 ×
- accA transcript elevation (E coli K12 bacteria [2]; microarray): 1.3
- accC transcript elevation (E coli K12 bacteria [2]; microarray): 3.2
- accD transcript elevation (E coli K12 bacteria [2]; microarray): 1.4
- adk transcript fold elevation (E coli K12 bacteria [2]; microarray): 1.5 × fold
- dusB transcript fold elevation (E coli K12 bacteria [2]; microarray): ≥ 3 × fold
- infB transcript fold elevation (E coli K12 bacteria [2]; microarray): 3.1 × fold
- ispD transcript fold enhancement (E coli K12 bacteria [2]; microarray): 2.5 × fold
- other IPP/DMAPP synthesis gene transcripts (the others) fold enhancement (E coli K12 bacteria [2]; microarray): ~1.3 × fold
- prsA transcript elevation (E coli K12 bacteria [2]; microarray): < 2 ×
- pyrF transcript fold elevation (E coli K12 bacteria [2]; microarray): 3.7 × fold
- rlmH transcript fold elevation (E coli K12 bacteria [2]; microarray): at least 3.4 × fold
- rpoS transcript fold elevation (E coli K12 bacteria [2]; microarray): 3 × fold
- tadA transcript fold elevation (E coli K12 bacteria [2]; microarray): ≥ 3 × fold
- trmA transcript fold elevation (E coli K12 bacteria [2]; microarray): ≥ 3 × fold
- ycih transcript fold elevation (E coli K12 bacteria [2]; microarray): 3.3 × fold
- yqgf transcript fold elevation (E coli K12 bacteria [2]; microarray): at least 3.4 × fold
- dacA transcript elevation (E coli K12 bacteria [2]; [4]): 3.6 × fold
- ftsI transcript elevation (E coli K12 bacteria [2]; [4]): 1.6 ×
- idtB transcript elevation (E coli K12 bacteria [2]; [4]): 2 ×
- idtC transcript elevation (E coli K12 bacteria [2]; [4]): 5.2 ×
- FabA, FabG, FabZ, FabI, FabF gene transcripts (E coli K12 bacteria [2]; microarray and RNA seq): elevated
- tRNA synthetases average increase (E coli K12 bacteria [2]; microarray, 20 genes): 1.24 × fold
- CspA transcript fold increase (E coli K12 bacteria [2]; microarray, vs control): 3.1 × fold
- nusA transcript fold increase (E coli K12 bacteria [2]; microarray, vs control): 2.6 × fold
- pgsA mRNA fold enhancement (E coli K12 bacteria [2]; platform not given): 1.9 × fold
- plsB mRNA fold enhancement (E coli K12 bacteria [2]; platform not given): 1.9 × fold
- pssA mRNA fold enhancement (E coli K12 bacteria [2]; platform not given): 1.9 × fold
- average fold change for 10,110 transcripts (E coli K12 bacteria [2]; standard deviation 1.4): −0.1
- average fold change of 23 mRNAs with half-lives greater than 10 minutes (E coli K12 bacteria [2]; standard deviation 2.44): 1.2
- effect on cells by day 4 ([3]; 100 mg of histidine and tryptophan each per liter): cell lysis
- growth recovery by day 4 ([3]; 4 g/L thio-phosphate): 60-100 % of controls
- growth after 24 hrs [3, 5]: the same
- growth recovered by the third day [3, 5]: normal or 60% of normal levels
- fold increase AICA per volume of cells ([3]; 4 g/L thio-phosphate vs normal phosphate (1 g/L), 26-30° C., 4 days): ~2 × fold
- AICA levels increased ([3]; per cell mass basis compared to normal phosphate containing culture media): 2 ×
- cell specific yield of AICA [3, 6]: 5-6 × fold
- growth of cells [3, 6]: inhibited
- protein spots significantly changed (E coli; previous studies): 28%
- average fold change of proteins (E coli; prior protein results): ~5 × fold
- proteins decreased (E coli; prior protein results): 13%
- proteins increased (E coli; prior protein results): 15%
